Among the data in US7442696B2, “Mineralocorticoid receptor modulator compounds, processes for their preparation, and their uses” (Ligand Pharmaceuticals, Inc., priority 2004, dated 2008) are Ki values, retold here.

For the assay, the target named is T1, human mineralocorticoid receptor protein (MR) (Homo sapiens, UniProt P08235).
T1 construct: made in house; host or cells: Spodoptera frugiperda Sf21 insect cells (baculovirus)
T1 sequence (P08235 1-984): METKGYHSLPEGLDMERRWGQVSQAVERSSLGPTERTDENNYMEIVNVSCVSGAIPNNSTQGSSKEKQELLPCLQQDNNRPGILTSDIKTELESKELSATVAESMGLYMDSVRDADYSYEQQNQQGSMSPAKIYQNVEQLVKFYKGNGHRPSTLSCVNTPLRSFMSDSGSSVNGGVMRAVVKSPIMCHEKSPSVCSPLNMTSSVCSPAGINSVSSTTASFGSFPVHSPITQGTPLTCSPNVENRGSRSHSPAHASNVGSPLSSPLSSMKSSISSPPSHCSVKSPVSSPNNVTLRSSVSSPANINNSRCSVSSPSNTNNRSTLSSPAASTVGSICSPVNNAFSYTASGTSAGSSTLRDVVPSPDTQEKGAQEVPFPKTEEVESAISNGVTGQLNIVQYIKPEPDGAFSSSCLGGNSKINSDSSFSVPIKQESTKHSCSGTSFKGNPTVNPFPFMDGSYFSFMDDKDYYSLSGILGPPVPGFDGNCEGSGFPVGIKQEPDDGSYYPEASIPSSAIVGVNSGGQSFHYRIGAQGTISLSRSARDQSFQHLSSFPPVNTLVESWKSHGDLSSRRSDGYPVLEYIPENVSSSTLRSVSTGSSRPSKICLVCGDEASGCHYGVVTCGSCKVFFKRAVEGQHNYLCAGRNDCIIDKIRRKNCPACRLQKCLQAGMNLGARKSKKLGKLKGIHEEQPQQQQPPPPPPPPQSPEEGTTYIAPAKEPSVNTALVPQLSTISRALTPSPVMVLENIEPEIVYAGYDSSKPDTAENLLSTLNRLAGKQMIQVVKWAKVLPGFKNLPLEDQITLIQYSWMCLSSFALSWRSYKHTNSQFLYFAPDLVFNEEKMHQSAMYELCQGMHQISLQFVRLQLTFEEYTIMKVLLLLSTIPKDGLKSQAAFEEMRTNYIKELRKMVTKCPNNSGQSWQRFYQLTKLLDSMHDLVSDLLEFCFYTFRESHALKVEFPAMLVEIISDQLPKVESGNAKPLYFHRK
The assay is described as follows: Mineralocorticoid receptor binding assay ([3H]aldosterone competition, MR lysate). As to conditions: baculovirus-expressed MR lysate from Sf21 cells; 2-4 nM [3H]aldosterone; 16 hours at 4° C.; Cheng-Prusoff from IC50. The procedure: A baculovirus expression plasmid comprising cDNA encoding the human mineralocorticoid receptor protein (MR) was prepared using standard techniques. See e.g. E. A. Allegretto et. al. 268 J. Biol. Chem., 26625 (1993); G. Srinivasan and B. Thompson, 4 Mol. Endo., 209 (1990); and D. R. O'Reilly et. al., in “Baculovirus Expression Vectors”, D. R. O'Reilly et. al., eds., W. H. Freeman, New York, N.Y., pp. 139-179 (1992). That expression plasmid was co-transfected together with wild type Autographa californica multiple nuclear polyhedrosis virus DNA into Spodoptera frugiperda-21 (Sf-21) cells to generate recombinant virus comprising MR cDNA. See e.g. O'Reilly, D. R., Miller, L. K., Luckow, V. A., Regulation of expression of a baculovirus ecdysteroid UDP glucosyltransferase gene. “Baculovirus Expression Vectors.” WH Freeman, NY, 139-179 (1992). That recombinant virus comprising MR cDNA was collected.
A suspension culture of uninfected Sf21 cells was grown to a density of 1.2×10^6 cells/ml and then infected with the recombinant virus comprising MR cDNA at a multiplicity of infection of 2. Those infected Sf21 cells were incubated for 48 hours and then collected by centrifugation at 1000×g for 10 minutes at 4° C. The resulting cell pellets were resuspended in lysis buffer (50 mM Potassium Phosphate buffer, pH 7.0, 10 mM Monothioglycerol, 5 mM DTT, 20 mM Sodium Molybdate, 1 mM PMSF, 1 μg/mL aprotinin, and 10 μg/mL leupeptin) and incubated for 15 minutes on ice. Those resuspended cell pellets were homogenized using a Dounce homogenizer and a B pestle. A volume of 2 M KCl was added to the homogenized cell pellets to a final concentration of 0.4 M. The resulting MR lysates were centrifuged at 100,000×g for 60 min at 4° C. and stored for use in binding assays.
Binding assay samples were prepared in separate mini-tubes in a 96-well format at 4° C. Each binding assay sample was prepared in a volume of 250 μl of MR-Assay Buffer (10% glycerol, 10 mM sodium phosphate, 10 mM potassium fluoride, 20 mM sodium molybdate, 0.25 mM CHAPS, 2 mM DTT, (adjusted to pH 7.35)) containing 5-10 μg of MR lysate; 2-4 nM of [^3H]aldosterone; unlabeled aldosterone; and a test compound. Each test compound was assayed at several different concentrations, ranging from 0 to 10^−5 M and each was tested in the presence and in the absence of several different concentrations of unlabeled aldosterone. Each concentration of each test compound was assayed in triplicate. The assay samples were incubated for 16 hours at 4° C.
After incubation, 200 μl of 6.25% hydroxylapatite in assay buffer was added to each assay sample to precipitate the protein. The assay samples were then centrifuged and the supernatants were discarded. The resulting pellets were washed twice with assay buffer lacking DTT. Radioactivity in counts per minute (CPM) of each washed pellet was determined by liquid scintillation counter (MicroBeta™, Wallach).
Specific binding for a particular sample was calculated using the equation: (Sample CPM)−(Average Non-specific CPM) Average Non-specific CPM was defined as the amount of radioactivity from samples comprising an excess (i.e. 1000 nM) of unlabeled aldosterone. IC50 values (the concentration of test compound required to decrease specific binding by 50%) were determined using the log-logit (Hill) method. Ki values were determined using the Cheng-Prusoff equation using a previously determined Kd value for aldosterone: Ki=IC50/(1+[L]/Kd) [L]=concentration of labeled aldosterone Kd=dissociation constant of labeled aldosterone Ki values for certain mineralocorticoid receptor binding compounds are shown in Table 1.
In the case of `CC1(C)OC(=O)Nc2ccc(-c3cccc(C(F)(F)F)c3)c(Cl)c21` [Compound 102, 5-Chloro-1,4-dihydro-4,4-dimethyl-6-[3-(trifluoromethyl)phenyl]-2H-3,1-benzoxazin-2-one], the Ki is 440 nM.

In turn, `CC1(C)OC(=S)Nc2ccc(-c3cccc(C(F)(F)F)c3)c(Cl)c21` [Compound 104, 5-Chloro-1,4-dihydro-4,4-dimethyl-6-[3-(trifluoromethyl)phenyl]-2H-3,1-benzoxazin-2-thione] yielded a Ki of 52 nM.

On to `O=C1Nc2ccc(-c3cccc(C(F)(F)F)c3)c(Cl)c2C(c2ccc(F)cc2)O1` (racemic) [Compound 118, (±)-5-Chloro-4-(4-fluorophenyl)-1,4-dihydro-6-[3-(trifluoromethyl)phenyl]-2H-3,1-benzoxazin-2-one], for which the Ki worked out at 150 nM.

Turning to `CC1(C)OC(=O)Nc2ccc(-c3cccc(C#N)c3)c(Cl)c21` [Compound 101, 5-Chloro-6-(3-cyanophenyl)-1,4-dihydro-4,4-dimethyl-2H-3,1-benzoxazin-2-one], the Ki came out at 98 nM.

As to `CC1OC(=S)Nc2ccc(-c3cccc(C(F)(F)F)c3)c(Cl)c21` (racemic) [Compound 111, (±)-5-Chloro-1,4-dihydro-4-methyl-6-[3-(trifluoromethyl)phenyl]-2H-3,1-benzoxazin-2-thione], the Ki was found to be 45 nM.

`CC(=O)c1cccc(-c2ccc3c(c2Cl)C(C)(C)OC(=O)N3)c1` [Compound 103, 6-(3-Acetylphenyl)-5-chloro-1,4-dihydro-4,4-dimethyl-2H-3,1-benzoxazin-2-one] had a Ki of 375 nM.

For orientation: Ki means the dissociation constant of the complex between target and ligand, obtained from inhibition or displacement.
